PubChem BioAssay AID2060900 (Molecular Pharmacology Branch, DTP, NCI, 2025)

Tested on: 521955-158-R2-J5-PDC complex spheroids, viability
Test: Anticancer human tumor 521955-158-R2-J5-PDC patient-derived pancreatic carcinoma cell line growth inhibition [RAS]
Conditions: for viability, T/C: stronger effect = lower value
Source text: RAS pathway inhibitors in Combinations in Complex Spheroids
A high-throughput screen of multi-cell type tumor spheroids was designed to identify active combinations of RAS pathway inhibitors and targeted small molecules. Complex spheroids include a stromal component modeled by human endothelial cells (HUVEC) and fibroblasts modeled by human mesenchymal stem cells (MSCs). The concentration ranges selected for each drug and investigational agent were based upon clinically achievable concentrations if the clinical Cmax of the agent was known.
Compounds. The drugs and investigational agents: abemaciclib (NSC768073), cobimetinib (NSC768068), divarasib (GDC6063, NSC841802), docetaxel (NSC628503), GDC-1971 (RLY-1971, NSC841576), gemcitabine (NSC613327), inavolisib (NSC800729), ipatasertib (NSC767898), KB-0742 (NSC834161), MRTX-1133 (NSC836407), osimertinib (NSC779217), RMC-4630 (NSC839698), RMC-6236 (NSC851965), RMC-6291 (NSC852671), Ro-3306 (NSC812927), sapanisertib (NSC764658), SN-38 (NSC673596), staurosporine (NSC755774), SY5609 (NSC837396), and tovorafenib (DAY101, NSC766906), were obtained from the National Cancer Institute (NCI) Developmental Therapeutics Program Chemical Repository. The FDA-approved anticancer drug set is available from the NCI Developmental Therapeutics Program. […] The stock solutions were prepared in dimethyl sulfoxide (DMSO, Sigma-Aldrich, St. Louis, MO, cat. D2650) at 800-fold the tested concentration and stored at -70 degrees C prior to their use. All drugs and investigational agents were tested over a range starting from a high concentration at or near the clinical Cmax and decreasing in half-log increments. If the clinical Cmax for an agent had not been determined, the highest concentration tested was 10 microM.
Cell Culture. All cells were maintained in an incubator at 37 degrees C and 5% CO2 with 95% humidity. The PDC lines were cultured according to standard operating procedures established by the NCI PDMR. All PDCs were thawed and cultured in Matrigel-coated flasks prepared with a working solution of 1X Ham's F-12 nutrient mix, without supplementation (Invitrogen, Waltham, MA, cat. 11765054), 100 U/mL penicillin-streptomycin (Invitrogen, cat. 15140122), and 2.5% Matrigel (Corning Inc., Corning, NY, cat. 354248) for the first three passages. The 362531-283-R-J2-PDC and 782815-120-R-J1-PDC lines were cultured in 6C/Colon 1B media, which includes advanced DMEM/F-12 (Thermo Fisher Scientific, cat. 12634028), 10 mM HEPES (Thermo Fisher Scientific, cat. 15630080), 1X GlutaMAX supplement (Thermo Fisher Scientific, cat. 35050061), 0.1 mg/mL primocin (InvivoGen, San Diego, CA, cat. ant-pm-2), 10% defined fetal bovine serum, heat inactivated (HyClone Laboratories Inc., Logan, UT, cat. SH30070.03HI), 50% L-WRN conditioned media (ATCC, cat. CRL-3276), 1.25 mM N-Acetyl-L-cysteine (Sigma-Aldrich, cat. A9165), 10 mM nicotinamide (Sigma-Aldrich, cat. N0636), 1X B-27 supplement (Thermo Fisher Scientific, cat. 17504044), 1X N-2 supplement (Thermo Fisher Scientific, cat. 17502048), 50 ng/mL human EGF (Thermo Fisher Scientific, cat. PHG0311), and 10 microM Y-27632 dihydrochloride (Tocris Bioscience, cat. 1254). The K12877-001-R-J1-PDC line was cultured in 6I media, which includes all 6C/Colon 1B media plus 10 ng/mL human FGF-10 (PeproTech, cat. 100-26), 1 ng/mL human FGF-2 (PeproTech, cat. 100-18B), 1 µM prostaglandin E2 (Tocris Bioscience, cat. 2296), […] hydrocortisone (Sigma-Aldrich, cat. H4001), and […] bovine insulin (Sigma-Aldrich, cat. I6634). The K86415-001-R-J1-PDC line was cultured in 6D media, which includes all 6C/Colon 1B media components minus the L-WRN conditioned media. The 485176-168-R4-J1-PDC was cultured in PANC media, which includes all 6C/Colon 1B media plus 100 ng/mL human FGF-10 (PeproTech, cat. 100-26), 500 nM SB-431542 (Selleckchem, cat. S1067), and 10 nM gastrin (Tocris Bioscience, cat. 3006). […]
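Note: compound exposure lasted seven days before the viability read.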
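Throughout, for viability, T/C: spheroids also contain HUVEC endothelial cells and mesenchymal stem cells as stroma.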

CC(=O)OC12COC1CC(O)C1(C)C(=O)C(O)C3=C(C)C(OC(=O)C(O)C(NC(=O)OC(C)(C)C)c4ccccc4)CC(O)(C(OC(=O)c4ccccc4)C21)C3(C)C (centres undefined) + CCn1c(-c2cc(N3CCN(C)CC3)cnc2C(C)OC)c2c3cc(ccc31)-c1csc(n1)CC(NC(=O)C1CC1C)C(=O)N1CCCC(N1)C(=O)OCC(C)(C)C2
IC50 (curve of first compound, second compound 0.000949 µM): < 31.6 nM
IC50 (curve of first compound, second compound 0.003 µM): < 31.6 nM
IC50 (curve of first compound, second compound 0.00949 µM): < 31.6 nM
IC50 (curve of first compound, second compound 0.03 µM): < 31.6 nM
IC50 (curve of first compound, second compound 0.0949 µM): < 31.6 nM
IC50 (curve of first compound, second compound 0.3 µM): < 31.6 nM
viability, T/C (second compound 0.000949 µM, first compound 0.0316 µM): 19.7%
viability, T/C (second compound 0.000949 µM, first compound 0.1 µM): 23.3%
viability, T/C (second compound 0.000949 µM, first compound 0.316 µM): 20.3%
viability, T/C (second compound 0.000949 µM, first compound 1 µM): 24.3%
viability, T/C (second compound 0.000949 µM, first compound 3.16 µM): 29.3%
viability, T/C (second compound 0.000949 µM, first compound 10 µM): 30.7%
viability, T/C (second compound 0.003 µM, first compound 0.0316 µM): 25.7%
viability, T/C (second compound 0.003 µM, first compound 0.1 µM): 21.4%
viability, T/C (second compound 0.003 µM, first compound 0.316 µM): 23.5%
viability, T/C (second compound 0.003 µM, first compound 1 µM): 28.9%
viability, T/C (second compound 0.003 µM, first compound 3.16 µM): 23.7%
viability, T/C (second compound 0.003 µM, first compound 10 µM): 26.8%
viability, T/C (second compound 0.00949 µM, first compound 0.0316 µM): 20.8%
viability, T/C (second compound 0.00949 µM, first compound 0.1 µM): 21.7%
viability, T/C (second compound 0.00949 µM, first compound 0.316 µM): 20.4%
viability, T/C (second compound 0.00949 µM, first compound 1 µM): 19.8%
viability, T/C (second compound 0.00949 µM, first compound 3.16 µM): 18.9%
viability, T/C (second compound 0.00949 µM, first compound 10 µM): 16.6%
viability, T/C (second compound 0.03 µM, first compound 0.0316 µM): 12.9%
viability, T/C (second compound 0.03 µM, first compound 0.1 µM): 12.8%
viability, T/C (second compound 0.03 µM, first compound 0.316 µM): 11.8%
viability, T/C (second compound 0.03 µM, first compound 1 µM): 16.9%
viability, T/C (second compound 0.03 µM, first compound 3.16 µM): 12.7%
viability, T/C (second compound 0.03 µM, first compound 10 µM): 9.64%
viability, T/C (second compound 0.0949 µM, first compound 0.0316 µM): 7.98%
viability, T/C (second compound 0.0949 µM, first compound 0.1 µM): 9.42%
viability, T/C (second compound 0.0949 µM, first compound 0.316 µM): 11.9%
viability, T/C (second compound 0.0949 µM, first compound 1 µM): 8.27%
viability, T/C (second compound 0.0949 µM, first compound 3.16 µM): 12.1%
viability, T/C (second compound 0.0949 µM, first compound 10 µM): 7.89%
viability, T/C (second compound 0.3 µM, first compound 0.0316 µM): 7.22%
viability, T/C (second compound 0.3 µM, first compound 0.1 µM): 8.9%
viability, T/C (second compound 0.3 µM, first compound 0.316 µM): 7.91%
viability, T/C (second compound 0.3 µM, first compound 1 µM): 11.6%
viability, T/C (second compound 0.3 µM, first compound 3.16 µM): 10.6%
viability, T/C (second compound 0.3 µM, first compound 10 µM): 7.75%

CCc1c2c(nc3ccc(O)cc13)-c1cc3c(c(=O)n1C2)COC(=O)[C@]3(O)CC
viability, T/C (compound 0.000949 µM): 82.5% [middle of 4 runs]
viability, T/C (compound 0.003 µM): 44.6% [middle of 4 runs]
viability, T/C (compound 0.00949 µM): 19.9% [middle of 4 runs]
viability, T/C (compound 0.03 µM): 10.1% [middle of 4 runs]
viability, T/C (compound 0.0949 µM): 6.59% [middle of 4 runs]
viability, T/C (compound 0.3 µM): 6.5% [middle of 4 runs]
IC50 (curve of compound): 2.64 nM [middle of 4 runs]
